The results in this text go back to patent US20070065890A1, “Method for promoting formation of facultative heterochromatin” (priority 2005, published 2007).

For one assay, the system named is histone H1. Description: In vitro deacetylation of p300-acetylated [3H]-labelled H1. As to conditions: H1 acetylated by p300-HAT with [3H]-AcCoA, incubated with different amounts of SirT1; plateau reached. In kind it is biochemical. How it is done: (§1) Detection of H1 acetylation was performed by using 4 μg of histone H1 (Upstate Biotechnology, Inc., Lake Placid, N.Y.) as an acetylated substrate for SirT1 in the NER. Deacetylation was determined by first performing a deacetylation assay using 20 and 40 μg of H1 and 6 nmol of SirT1. H1 was then isolated in the supernatant of chilled 5% perchloric acid, TCA precipitated (Albig, et al. (1998) FEBS Lett. 435:245-250), and resuspended in buffer C containing 100 mM KCl. Deacetylated H1 was then used in a subsequent NER. In vitro acetylation of H1 or recombinant H1b expressed in E. coli was carried out by incubating 10 μg H1 with 2 nmol baculovirus-generated p300 in the presence of 0.875 μCi [H^3]-Ac-CoA (Amersham, Piscataway, N.J.) in HAT buffer (75 mM Tris-HCl [pH 8.8], 135 mM NaCl). Deacetylation was carried out with the specified enzyme as above using 1 μg of the labeled Hi. […] Counts were then determined by liquid scintillation (PERKINELMER, Wellesley, Mass.) . […] In vivo H1 acetylation was analyzed by treating 293 cells for 18 hours in media containing 5 mM nicotinamide. H1 was purified as described (Albig, et al. (1998) supra) and analyzed in the NER. […]
(§2) SirT1 activity on histone H1 was directly tested in vitro. […] The same result was observed using recombinant human H1b; however, specificity was also scored in this assay using different SirT proteins.

For a further assay, the target named is T1, recombinant human H1b (Homo sapiens, UniProt P10412).
T1 construct: Human histone H1b and H1° were inserted into HA-Pet30c; HA (N); made in house; host or cells: E. coli BL21 (DE3)
T1 sequence (P10412 2-219): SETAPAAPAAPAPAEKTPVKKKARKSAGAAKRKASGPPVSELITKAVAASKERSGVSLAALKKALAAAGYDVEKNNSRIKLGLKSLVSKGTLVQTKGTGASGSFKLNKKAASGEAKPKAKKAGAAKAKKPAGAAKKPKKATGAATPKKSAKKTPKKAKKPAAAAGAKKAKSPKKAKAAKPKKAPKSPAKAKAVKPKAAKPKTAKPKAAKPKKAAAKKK
As to the kind of experiment: In vitro deacetylation of p300-acetylated recombinant H1b by SirT proteins. It is filed as biochemical. The settings on record: equal NAD+-exchange units measured using acetylated BSA as substrate. How it is done: as §1, §2

For the substance “SirT1: Human sirtuin type 1 protein, SEQ ID NO:1; purified recombinant, baculovirus-expressed”, the “total label in H1 released” value in the assay with histone H1 is given as “up to 70%”. The H1b deacetylation entry with recombinant human H1b was “H1b deacetylation is specific for SirT1”.
